From patent US12678446B2 (PFIZER INC., priority 2020, dated 2026)

How the values were obtained:
[1] = system: RSV (RSV A2 ECACC, 0709161v); experiment: RSV plaque reduction assay; assay type: cell-based, respiratory syncytial virus; details: human respiratory syncytial virus, HepG2, read-out: RSV A2 Plaque EC50, RSV A2 in Hep-G2 cells; mean of at least two experiments unless noted (n = 1)
Outline: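 Eight-point compound dilutions were premixed with RSV A2 (100 PFU/well) and applied to confluent Hep-G2 cells for 2 h, followed by a 2-day incubation at 37° C. under compound-containing 0.8% CMC overlay. EC50 comes from immunostained plaque counts relative to untreated virus wells, averaged over ≥2 runs.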

cell toxicity CC50 = assay type: cell-based; details: human; Hep-G2 cells; mean of at least two experiments; read-out: Cell Cytotoxicity CC50

SMILES | EC50 [1] [nM] | CC50 (cell toxicity CC50) [µM]
C[C@@H]1CCn2nc(-c3ccc4c(cnn4C)c3)c(C(=O)N[C@H]3N=C(c4ccccc4)c4cccc(F)c4NC3=O)c2O1 [Example 83, (5R)-5-Methyl-2-(1-methylindazol-5-yl)-N-[(3S)-9-fluoro-2-oxo-5-phenyl-1,3-dihydro-1,4-benzodiazepin-3-yl]-6,7-dihydro-5H-pyrazolo[5,1-b][1,3]oxazine-3-carboxamide] | 115 | > 25
CCn1cc(-c2nn3c(c2C(=O)N[C@H]2N=C(c4ccccc4)c4cccc(F)c4NC2=O)O[C@H](C)CC3)cn1 [Example 84, (5R)-2-(1-Ethylpyrazol-4-yl)-N-[(3S)-9-fluoro-2-oxo-5-phenyl-1,3-dihydro-1,4-benzodiazepin-3-yl]-5-methyl-6,7-dihydro-5H-pyrazolo[5,1-b][1,3]oxazine-3-carboxamide] | 70 | > 25
C[C@@H]1CCn2nc(-c3ccc(CC(C)(C)O)nc3)c(C(=O)N[C@H]3N=C(c4ccccc4)c4cccc(F)c4NC3=O)c2O1 [Example 85, (5R)-2-[6-(2-Hydroxy-2-methylpropyl)pyridin-3-yl]-5-methyl-N-[(3S)-9-fluoro-2-oxo-5-phenyl-1,3-dihydro-1,4-benzodiazepin-3-yl]-6,7-dihydro-5H-pyrazolo[5,1-b][1,3]oxazine-3-carboxamide] | 121 | > 25
C[C@@H]1CCn2nc(-c3ccc(N4C[C@H]5C[C@@H]4CO5)nc3)c(C(=O)N[C@H]3N=C(c4ccccc4)c4cccc(F)c4NC3=O)c2O1 [Example 86, (5R)-5-Methyl-N-[(3S)-9-fluoro-2-oxo-5-phenyl-1,3-dihydro-1,4-benzodiazepin-3-yl]-2-[6-[(1R,4R)-2-oxa-5-azabicyclo[2.2.1]heptan-5-yl]pyridin-3-yl]-6,7-dihydro-5H-pyrazolo[5,1-b][1,3]oxazine-3-carboxamide] | 44 | > 25
Cc1cc(NC(C)C)ncc1-c1nn2c(c1C(=O)N[C@H]1N=C(c3ccccc3)c3cccc(F)c3NC1=O)O[C@H](C)CC2 [Example 92, (5R)-5-Methyl-2-[4-methyl-6-(propan-2-ylamino)pyridin-3-yl]-N-[(3S)-9-fluoro-2-oxo-5-phenyl-1,3-dihydro-1,4-benzodiazepin-3-yl]-6,7-dihydro-5H-pyrazolo[5,1-b][1,3]oxazine-3-carboxamide] | 131 | > 25
C[C@H]1CCn2nc(-c3ccc(N4C[C@H]5C[C@@H]4CO5)nc3)c(C(=O)N[C@H]3N=C(c4ccccc4)c4cccc(F)c4NC3=O)c2O1 [Example 94, (5S)-5-Methyl-N-[(3S)-9-fluoro-2-oxo-5-phenyl-1,3-dihydro-1,4-benzodiazepin-3-yl]-2-[6-[(1R,4R)-2-oxa-5-azabicyclo[2.2.1]heptan-5-yl]pyridin-3-yl]-6,7-dihydro-5H-pyrazolo[5,1-b][1,3]oxazine-3-carboxamide] | 44 | > 25
C[C@@H]1CCn2nc(Nc3ccccc3)c(C(=O)N[C@H]3N=C(c4ccccc4)c4cccc(F)c4NC3=O)c2O1 [Example 95, (5R)-2-Anilino-5-methyl-N-[(3S)-9-fluoro-2-oxo-5-phenyl-1,3-dihydro-1,4-benzodiazepin-3-yl]-6,7-dihydro-5H-pyrazolo[5,1-b][1,3]oxazine-3-carboxamide] | 357 | > 25
C[C@@H]1CCn2nc(Nc3ccccc3)c(C(=O)N[C@H]3N=C(c4ccccc4)c4ccccc4NC3=O)c2O1 [Example 96, (5R)-2-Anilino-5-methyl-N-[(3S)-2-oxo-5-phenyl-1,3-dihydro-1,4-benzodiazepin-3-yl]-6,7-dihydro-5H-pyrazolo[5,1-b][1,3]oxazine-3-carboxamide] | 464 | > 25
C[C@@H]1CCn2nc(Nc3ccc(F)cc3)c(C(=O)N[C@H]3N=C(c4ccccc4)c4cccc(F)c4NC3=O)c2O1 [Example 97, (5R)-2-(4-Fluoroanilino)-N-[(3S)-9-fluoro-2-oxo-5-phenyl-1,3-dihydro-1,4-benzodiazepin-3-yl]-5-methyl-6,7-dihydro-5H-pyrazolo[5,1-b][1,3]oxazine-3-carboxamide] | 439 | > 25
C[C@@H]1CCn2nc(-c3cnn(C)c3)c(C(=O)N[C@H]3N=C(c4ccccc4)c4cccc(F)c4NC3=O)c2O1 [Example 98, (5R)-N-[(3S)-9-fluoro-2-oxo-5-phenyl-1,3-dihydro-1,4-benzodiazepin-3-yl]-5-methyl-2-(1-methylpyrazol-4-yl)-6,7-dihydro-5H-pyrazolo[5,1-b][1,3]oxazine-3-carboxamide] | 80 | > 25
CCn1cc(-c2nn3c(c2C(=O)N[C@H]2N=C(c4ccccc4)c4cccc(F)c4NC2=O)OCCC3)cn1 [Example 99, 2-(1-Ethylpyrazol-4-yl)-N-[(3S)-9-fluoro-2-oxo-5-phenyl-1,3-dihydro-1,4-benzodiazepin-3-yl]-6,7-dihydro-5H-pyrazolo[5,1-b][1,3]oxazine-3-carboxamide] | 71 | > 25
CN(C)Cc1ccc(-c2nn3c(c2C(=O)N[C@H]2N=C(c4ccccc4)c4cccc(F)c4NC2=O)OCCC3)c(F)c1 [Example 100] | 75 | > 25
O=C(N[C@H]1N=C(c2ccccc2)c2cccc(F)c2NC1=O)c1c(-c2ccc(CN3CCOCC3)cc2F)nn2c1OCCC2 [Example 101, 2-[2-Fluoro-4-(morpholin-4-ylmethyl)phenyl]-N-[(3S)-9-fluoro-2-oxo-5-phenyl-1,3-dihydro-1,4-benzodiazepin-3-yl]-6,7-dihydro-5H-pyrazolo[5,1-b][1,3]oxazine-3-carboxamide] | 123 | > 25
CCN(CC)Cc1ccc(-c2nn3c(c2C(=O)N[C@H]2N=C(c4ccccc4)c4cccc(F)c4NC2=O)OCCC3)c(F)c1 [Example 102, 2-[4-(Diethylaminomethyl)-2-fluorophenyl]-N-[(3S)-9-fluoro-2-oxo-5-phenyl-1,3-dihydro-1,4-benzodiazepin-3-yl]-6,7-dihydro-5H-pyrazolo[5,1-b][1,3]oxazine-3-carboxamide] | 135 | > 25
CC(C)n1cc(-c2nn3c(c2C(=O)N[C@H]2N=C(c4ccccc4)c4ccccc4NC2=O)OCCC3)cn1 [Example 103, N-[(3S)-2-oxo-5-phenyl-1,3-dihydro-1,4-benzodiazepin-3-yl]-2-(1-propan-2-ylpyrazol-4-yl)-6,7-dihydro-5H-pyrazolo[5,1-b][1,3]oxazine-3-carboxamide] | 132 | > 25
CC1(Cn2cc(-c3nn4c(c3C(=O)N[C@H]3N=C(c5ccccc5)c5cccc(F)c5NC3=O)OCCC4)cn2)COC1 [Example 104, N-[(3S)-9-fluoro-2-oxo-5-phenyl-1,3-dihydro-1,4-benzodiazepin-3-yl]-2-[1-[(3-methyloxetan-3-yl)methyl]pyrazol-4-yl]-6,7-dihydro-5H-pyrazolo[5,1-b][1,3]oxazine-3-carboxamide] | 128 | > 25
CC1CCOc2c(C(=O)N[C@H]3N=C(c4ccccc4)c4cccc(F)c4NC3=O)c(-c3ccccc3F)nn21 (stereo partly drawn) [Example 105, N-[(3S)-9-fluoro-2-oxo-5-phenyl-1,3-dihydro-1,4-benzodiazepin-3-yl]-2-(2-fluorophenyl)-7-methyl-6,7-dihydro-5H-pyrazolo[5,1-b][1,3]oxazine-3-carboxamide] | 48 | > 25
CCN(C(=O)OC(C)(C)C)C1COc2c(C(=O)N[C@H]3N=C(c4ccccc4)c4cccc(F)c4NC3=O)c(-c3ccccc3F)nn2C1 (stereo partly drawn) [Example 108, tert-butyl N-ethyl-N-[3-[[(3S)-9-fluoro-2-oxo-5-phenyl-1,3-dihydro-1,4-benzodiazepin-3-yl]carbamoyl]-2-(2-fluorophenyl)-6,7-dihydro-5H-pyrazolo[5,1-b][1,3]oxazin-6-yl]carbamate] | 117 | > 25
C[C@@H]1CCn2nc(C3CCCCC3)c(C(=O)N[C@H]3N=C(c4ccccc4)c4cccc(F)c4NC3=O)c2O1 [Example 114, (5R)-2-Cyclohexyl-N-[(3S)-9-fluoro-2-oxo-5-phenyl-1,3-dihydro-1,4-benzodiazepin-3-yl]-5-methyl-6,7-dihydro-5H-pyrazolo[5,1-b][1,3]oxazine-3-carboxamide] | 117 | 17.1
Cc1nn(C)cc1-c1nn2c(c1C(=O)N[C@H]1N=C(c3ccccc3)c3cccc(F)c3NC1=O)O[C@H](C)CC2 [Example 115, (5R)-2-(1,3-Dimethylpyrazol-4-yl)-N-[(3S)-9-fluoro-2-oxo-5-phenyl-1,3-dihydro-1,4-benzodiazepin-3-yl]-5-methyl-6,7-dihydro-5H-pyrazolo[5,1-b][1,3]oxazine-3-carboxamide] | 226 | > 25
C[C@@H]1CCn2nc(-c3cnn(C4COC4)c3)c(C(=O)N[C@H]3N=C(c4ccccc4)c4cccc(F)c4NC3=O)c2O1 [Example 116, (5R)-N-[(3S)-9-fluoro-2-oxo-5-phenyl-1,3-dihydro-1,4-benzodiazepin-3-yl]-5-methyl-2-[1-(oxetan-3-yl)pyrazol-4-yl]-6,7-dihydro-5H-pyrazolo[5,1-b][1,3]oxazine-3-carboxamide] | 127 | > 25
C[C@@H]1CCn2nc(-c3cnn(CCO)c3)c(C(=O)N[C@H]3N=C(c4ccccc4)c4cccc(F)c4NC3=O)c2O1 [Example 117, (5R)-N-[(3S)-9-fluoro-2-oxo-5-phenyl-1,3-dihydro-1,4-benzodiazepin-3-yl]-2-[1-(2-hydroxyethyl)pyrazol-4-yl]-5-methyl-6,7-dihydro-5H-pyrazolo[5,1-b][1,3]oxazine-3-carboxamide] | 434 | > 25
